Experimental data taken from article PMC10808794, “Snakebite drug discovery: high-throughput screening to identify novel snake venom metalloproteinase toxin inhibitors” (Frontiers in Pharmacology, 2024).
pEC50, pIC50, pKi: −log10 of the molar value. Converted amounts (≈) assume the structure as drawn. “And” between values parts separate entries of the source, which are not always exact repeats. Equal values may be shown once. Where a name gives a salt, the structure may show the parent alone. Read-outs that look alike come from different tables or passages of the source.

Legend:
[1] = system: SVMP activity of five viper venoms; experiment: SVMP fluorogenic substrate assay, summary across the panel of five viper venoms; type: biochemical; conditions: for pEC50: five venoms
Description: (§1) Daughter plates and assay-ready plates were stored at −20°C, with the latter used within a month of creation. For SVMP assay-ready plates, 0.91 µL of each drug from the respective daughter plate was plated, such that in the final assay volume of 91 μL, a final concentration of 10 µM was reached. […] In secondary screening, dose response curves were created, with a top final assay concentration of 10 µM and reaching sub-nanomolar concentrations (concentration range was dependent on specific plate layout), with each concentration tested in duplicate.
(§2) The SVMP activity of crude venom in the presence of inhibitors or vehicle control (DMSO) was measured using a quenched fluorogenic substrate (substrate for MMPs, ADAMs and Cathepsins, Cat no: ES010, Bio-Techne). […] Reactions consisted of 1 µg of venom in 15 µL PBS co-incubated with 0.91 µL of inhibitor at a concentration of 1 mM. […] The plates were read on a CLARIOstar microplate reader (BMG Labtech), at an excitation wavelength of 320–10 nm and emission wavelength of 420–10 nm with 10 flashes per well at 25°C, at a pre-defined end read time. The end-read times were selected independently for each venom, as the plateau point for the venom + vehicle control (maximum fluorescence) identified in an initial 1-h kinetic read.
(§3) The SVMP activity for the end-read data was calculated for each test condition as a percentage of the mean of the venom + vehicle wells (100% activity), with a baseline of the marimastat 10 µM controls representing 0% activity (Supplementary Equation S1).

[2] = system: SVMP activity of Echis ocellatus venom; experiment: SVMP fluorogenic substrate assay, E. ocellatus venom; type: biochemical; conditions: for activity at the top dose tested: top 10 µM dose, negative control drugs; for pEC50: E. ocellatus venom, 20-min endpoint, N/A = did not cross 50% inhibition at any dose, read-out: EC50, known inhibitors validation screen
Description: as §1, §2, §3

[3] = system: SVMP activity of Crotalus atrox venom; experiment: SVMP fluorogenic substrate assay, C. atrox venom; conditions: read-out: EC50, known inhibitors validation screen, 30-min endpoint
Description: as §1, §2, §3

[4] = system: SVMP activity of Calloselasma rhodostoma venom; experiment: SVMP fluorogenic substrate assay, C. rhodostoma venom; type: biochemical; conditions: 20-min endpoint, read-out: EC50, known inhibitors validation screen
Description: as §1, §2, §3

[5] = system: SVMP activity of Bothrops jararaca venom; experiment: SVMP fluorogenic substrate assay, B. jararaca venom; type: biochemical; conditions: 30-min endpoint, read-out: EC50, known inhibitors validation screen
Description: as §1, §2, §3

[6] = system: SVMP activity of Bitis arietans venom; experiment: SVMP fluorogenic substrate assay, B. arietans venom; type: biochemical; conditions: 40-min endpoint, read-out: EC50, known inhibitors validation screen
Description: as §1, §2, §3

patients [7] = system: patients; parameters: method as in Bissett et al., 2005; conditions: ref Bissett et al., 2005, cited from earlier work
patients [8] = system: patients; parameters: method as in Conatus Pharmaceuticals Inc, 2012; conditions: 30 mg per day for up to 24 weeks; ref Conatus Pharmaceuticals Inc, 2012; cited from earlier work
[9] = parameters: method as in Williams et al., 2011b; conditions: ref Williams et al., 2011b; cited from earlier work
[10] = parameters: method as in MedChemExpress; conditions: ref MedChemExpress; cited from earlier work
5-HT2C = system: 5-HT2C; parameters: method as in MedChemExpress; conditions: IP accumulation assays; ref MedChemExpress; read-out: IC50, 5-HT2C partial inverse agonist; cited from earlier work
5-HT2A = system: 5-HT2A; parameters: method as in MedChemExpress; conditions: IP accumulation assays; ref MedChemExpress; read-out: IC50, 5-HT2A inverse agonist; cited from earlier work
5-HT2B = system: 5-HT2B; parameters: method as in MedChemExpress; conditions: IP accumulation assays; ref MedChemExpress; read-out: IC50, 5-HT2B inverse agonist; cited from earlier work
5 alpha Reductase = target: 5 alpha Reductase; parameters: method as in MedChemExpress; conditions: benign prostatic hyperplasia, ref MedChemExpress, cited from earlier work
[11] = read-out: EC50 against each of the venoms, secondary screen
[12] = validation screen, read-out: EC50 range across all venoms, known inhibitors
[13] = validation screen, read-out: average EC50 across all venoms

**Q.** With Cn1c(=O)cc(N2CCC[C@@H](N)C2)n(Cc2cc(F)ccc2C#N)c1=O [trelagliptin (succinate), trelagliptin] as the molecule, how does the pEC50 [1, 11] read?
**A.** The pEC50 was < 6.00.

**Q.** With CS(=O)(=O)O.N=C(N)c1ccc2cc(OC(=O)c3ccc(N=C(N)N)cc3)ccc2c1 [nafamostat, (6-Carbamimidoylnaphthalen-2-yl)4-(diaminomethylideneamino)benzoate methanesulfonic acid] as the molecule, how does the “activity at the top dose tested” value [2] read?
**A.** Its value is “no activity”.

**Q.** For S=C(N/N=C1\CCCc2cccnc21)N1CCN(c2ccccn2)CC1 [COTI-2], which “fold superiority of EC50 to dimercaprol” value ([1]; across all venoms, secondary screen) is on record?
**A.** The value was > 2 fold.

**Q.** And the pEC50 ([1]; read-out: EC50 range across all venoms, secondary screen)?
**A.** Its pEC50 is 6.19 to 6.73.

**Q.** With CNC(=O)[C@H](Cc1ccccc1)NC(=O)[C@H](CC(C)C)[C@H](CSc1cccs1)C(=O)NO [batimastat, (2R,3S)-N4-Hydroxy-N1-[(1S)-2-(methylamino)-2-oxo-1-(phenylmethyl)ethyl]-2-(2-methylpropyl)-3-[(2-thienylthio)methyl]butanediamide] as the molecule, how does the pEC50 [3] read?
**A.** The pEC50 was 7.81.

**Q.** And the pEC50 [2]?
**A.** The pEC50 was 8.21.

**Q.** And the pEC50 [4]?
**A.** Its pEC50 is 7.38.

**Q.** What about the pEC50 [5] of the same molecule?
**A.** The pEC50 was 8.25.

**Q.** And the pEC50 [6]?
**A.** Its pEC50 is 8.60.

**Q.** With CC1(C)SCCN(S(=O)(=O)c2ccc(Oc3ccncc3)cc2)[C@H]1C(=O)NO [prinomastat, prinomastat hydrochloride] as the molecule, how does the pEC50 [3] read?
**A.** Its pEC50 is 7.70.

**Q.** What about the pEC50 [2] of the same molecule?
**A.** The pEC50 was 8.36.

**Q.** And the pEC50 [4]?
**A.** Its pEC50 is 7.44.

**Q.** What about the “toxicity observed in Phase III trials” value (patients [7]; 15 mg bi-daily dosing for 3–36 months) of the same molecule?
**A.** The value was “musculoskeletal toxicity was observed in a significant proportion of patients”.

**Q.** And the “thromboembolic risk in Phase III trials” value (patients [7]; cancer patients receiving combination chemotherapy)?
**A.** The value was “increased risk of venous thromboembolic disease”.

**Q.** And the pEC50 [5]?
**A.** Its pEC50 is 8.02.

**Q.** And the pEC50 [6]?
**A.** The pEC50 was 8.62.

**Q.** With OCC(S)CS (stereo not shown) [dimercaprol, 2,3-dimercapto-1-propanol] as the molecule, how does the pEC50 [3] read?
**A.** The pEC50 was 5.31.

**Q.** And the pEC50 [2]?
**A.** The pEC50 was 5.95.

**Q.** And the pEC50 [4]?
**A.** The pEC50 was 5.16.

**Q.** What about the pEC50 [1, 12] of the same molecule?
**A.** The pEC50 was 5.16 to 6.25.

**Q.** And the pEC50 [1, 13]?
**A.** Its pEC50 is 5.50.

**Q.** What about the pEC50 [5] of the same molecule?
**A.** The pEC50 was 6.25.

**Q.** And the pEC50 [6]?
**A.** The pEC50 was 5.64.

**Q.** With O=C(/C=C/c1cccc(S(=O)(=O)Nc2ccccc2)c1)NO [belinostat] as the molecule, how does the pEC50 [1, 11] read?
**A.** The pEC50 was < 6.00.

**Q.** Which “adverse events in Phase II trials” value (patients [8]) does the source give for O=C(NO)C1(CS(=O)(=O)c2ccc(Oc3ccc(Cl)cc3)cc2)CCOCC1 [CTS-1027] here?
**A.** The value was “a range of serious adverse events”.

**Q.** With CNC(=O)[C@@H](NC(=O)[C@H](CC(C)C)[C@H](O)C(=O)NO)C(C)(C)C [marimastat, (2S,3R)-N4-[(1S)-2,2-Dimethyl-1-[(methylamino)carbonyl]propyl]-N1,2-dihydroxy-3-(2-methylpropyl)butanediamide] as the molecule, how does the pEC50 [3] read?
**A.** Its pEC50 is 7.92.

**Q.** What about the pEC50 [2] of the same molecule?
**A.** The pEC50 was 8.30.

**Q.** What about the pEC50 [4] of the same molecule?
**A.** Its pEC50 is 7.56.

**Q.** What about the pEC50 [5] of the same molecule?
**A.** Its pEC50 is 8.13.

**Q.** And the pEC50 [6]?
**A.** Its pEC50 is 8.63.

**Q.** Which aqueous solubility [9] does the source give for COCCOC(=O)N1CCN(S(=O)(=O)c2cc(F)c(Oc3ccc(Cl)cc3)c(F)c2)C(C(=O)NO)C1 (stereo not shown) [XL-784] here?
**A.** The aqueous solubility was 20 µg/mL (≈ 36.4 µM).

**Q.** Which “Solubility in DMSO” value [10] does the source give for C[C@]12C=CC(=O)N[C@@H]1CC[C@@H]1[C@@H]2CC[C@]2(C)[C@@H](C(=O)Nc3cc(C(F)(F)F)ccc3C(F)(F)F)CC[C@@H]12 [Dutasteride] here?
**A.** Its value is 63.06 mM (≈ 33.3 mg/mL).

**Q.** With NS(=O)(=O)c1cc2c(cc1Cl)N=CNS2(=O)=O [chlorothiazide] as the molecule, how does the pEC50 [1, 11] read?
**A.** Its pEC50 is < 6.00.

**Q.** With COc1ccc(NC(=O)Nc2ccc(F)cc2F)cc1-c1c(Br)cnn1C [Nelotanserin] as the molecule, how does the pIC50 (5-HT2C) read?
**A.** The pIC50 was 7.10.

**Q.** And the pIC50 (5-HT2A)?
**A.** The pIC50 was 8.77.

**Q.** And the “Solubility in DMSO” value [10]?
**A.** The value was ≥ 32 mg/mL and ≥ 73.19 mM.

**Q.** What about the pIC50 (5-HT2B) of the same molecule?
**A.** Its pIC50 is 6.10.

**Q.** With OCCN1C[C@H](O)[C@@H](O)[C@H](O)[C@H]1CO [miglitol] as the molecule, how does the pEC50 [1, 11] read?
**A.** The pEC50 was < 6.00.

**Q.** Which results are given for O=S(=O)(O)CC(S)CS (stereo not shown) [DMPS, 2,3-dimercapto-1-propane-sulfonic acid sodium salt monohydrate]?
**A.** pEC50 [3]: 5.49; pEC50 [2]: 6.02; pEC50 [4]: 5.28; pEC50 [1, 12]: 5.28 to 6.28; pEC50 [1, 13]: 5.65; pEC50 [5]: 6.28; pEC50 [6]: 5.92

**Q.** With CC(C)(C)NC(=O)[C@H]1CC[C@H]2[C@@H]3CC[C@H]4NC(=O)C=C[C@]4(C)[C@H]3CC[C@]12C [Finasteride] as the molecule, how does the pKi (5 alpha Reductase; epithelium, read-out: Ki, 5alpha-reductase activity in epithelium) read?
**A.** The pKi was 8.00.

**Q.** What about the pKi (5 alpha Reductase; stroma, read-out: Ki, 5alpha-reductase activity in stroma) of the same molecule?
**A.** The pKi was 7.48.

**Q.** What about the “Solubility in DMSO” value [10] of the same molecule?
**A.** Its value is 150 mg/mL and 402.64 mM.

**Q.** Which “activity at the top dose tested” value [2] does the source give for CCc1c(C(=O)C(N)=O)c2c(OCC(=O)O)cccc2n1Cc1ccccc1 [varespladib, 2-[[3-(2-Amino-2-oxoacetyl)-2-ethyl-1-(phenylmethyl)-1H-indol-4-yl]oxy]-acetic acid] here?
**A.** The value was “no activity”.
